Key:
B-16 melanoma = assay: Anti-tumor action to B-16 melanoma transplanted under skin of mice; type: in vivo, BDF1 female mice; settings: Mus musculus, B16, 504 h, 5th and 9th day, tumor weight at 21st day, read-out: Inhibition Ratio (%); for inhibition in vivo at 250 mg/kg: 250 mg/kg/day x 3, oral at 1st; for inhibition in vivo at 500 mg/kg: 500 mg/kg/day x 3, oral at 1st; for inhibition in vivo at 125 mg/kg: 125 mg/kg/day x 3, oral at 1st
Description: A cancer cell of B-16 melanoma (1 x 10^5 cells) was transplanted under skin of BDF1 female mice (age of about 5 weeks), and each of testing compounds was orally dosed at lst, 5th and 9th day after the transplantation. At 21st day after the transplantation, the mice were killed to measure a weight of the formed cancerous tumor and to finally determine an inhibition ratio due to the dosage of the test compound.

[1] = Acute toxicity, oral dosage to mice, LD50; settings: mouse, in vivo, single dose suspended in 0.1% P-1570, ICR female mice, observed 21 days
Description: Each test compound suspended in 0.1% P-1570 was orally and forcedly dosed through a gastric probe to ICR female mice (21 - 22g, age of about 5 weeks). An identification number was given to each mouse, and weighing and observation on general behaviour were done just before the dosage and each day after the same. Each dead mouse was subjected without delay to an autopsy to check the same, more particularly in detail on enterona. All living mice were killed at the 21st day from the dosage to carry out an autopsy for checking the same, more particularly on the entrails.
An LD50 was calculated in accordance with Leed.and Munch's method.

colon-38 carcinoma = assay: Anti-tumor action to colon-38 carcinoma transplanted under skin of mice; type: in vivo, BDF1 female mice; settings: 5th and 9th day, tumor weight at 28th day vs non-treated control; for inhibition in vivo at 323 mg/kg: 323 mg/kg/day x 3, oral at 1st; for inhibition in vivo at 338 mg/kg: 338 mg/kg/day x 3, oral at 1st
Experimental: 0.02 ml of 10(W/V) cell suspension prepared from a solid cancer cell (colon-38 carcinoma) was transplanted under skin of BDF1 female mice (20 - 21g, age of about 5 weeks), and each test compound was orally dosed at lst, 5th and 9th day after the transplantation. major and minor axes of the forming cancerous tumor were measured at llth, 14th, 18th, 21st, 25th and 28th day after the transplantation to calcuate the volume ofthe cancerous tumor in accordance with the equation: [formula] • wherein L: major axis (mm) • W: minor axis (mm)
At 28th day from the transplantation, the mice were killed and each of the cancerous tumors was enucleated to measure its weight and to determine an inhibition ratio in comparison with that in a non-treated control group.

[2] = Mus musculus, 672 h, read-out: Inhibition Ratio (%)

| Compound | inhibition in vivo at 250 mg/kg (B-16 melanoma) [%] | inhibition in vivo at 500 mg/kg (B-16 melanoma) [%] | LD50 at 504 h [1] [mg/kg] | also measured |
| --- | --- | --- | --- | --- |
| CC(C)(C)[Si](C)(C)CCCSCCCN [Example 9, 3-[[3-(t-Butyldimethylsilyl)propyl]thio)propylamine] | 57.3 | 51.9 | > 1500 |  |
| CC(C)[Si](C)(C)CCCSCCN [Example 6, Z-[[3-(Isopropyldimethylsilyl)propyl]thio]ethylamine] |  |  | 1500 |  |
| CCCCCCCC[Si](C)(C)CCSCCN [Example 1, 2-[[2-(Dimethyl-n-octylsilyl)ethyl]thio]ethylamine] |  |  | > 1500 |  |
| C[Si](C)(CCCSCCCNC(=O)n1cc(F)c(=O)[nH]c1=O)c1ccccc1 [compound 11, 1-{3-{[3-(Dimethylphenylsilyl)propyl]thio}-propylcarbamoyl}-5-fluorouracil] | 70.5 |  | 1800 | inhibition in vivo at 125 mg/kg (B-16 melanoma): 82.2%; inhibition in vivo at 339 mg/kg (colon-38 carcinoma; Mus musculus, 672 h, 339 mg/kg/day x 3, oral at 1st, read-out: Inhibition Ratio (%)): 97.9% |
| CCCC[Si](C)(C)CCCSCCCN [Example 10, 3-[[3-(n-Butyldimethylsilyl)propyl)thio)propylamine] | 50.4 | 29.8 | > 1500 |  |
| CC(C)(C)[Si](C)(C)CCCSCCCNC(=O)n1cc(F)c(=O)[nH]c1=O [compound 9, 1-{3-{[3-(t-Butyldimethylsilyl)propyl]thio}-propylcarbamoyl}-5-fluorouracil] | 46.3 |  | 1800 | inhibition in vivo at 125 mg/kg (B-16 melanoma): 55.2%; inhibition in vivo at 323 mg/kg (colon-38 carcinoma; [2]): 90.1% |
| CCCCCCCC[Si](C)(C)CCSCCNC(=O)n1cc(F)c(=O)[nH]c1=O [Reference Example 1, 1-[2-[[2-dimethyl-n-octylsilylethyl)thio]ethylcarbamoyl]-5-fluorouracil] |  |  | 1580 | inhibition in vivo at 345 mg/kg (colon-38 carcinoma; Mus musculus, 672 h, 345 mg/kg/day x 3, oral at 1st, read-out: Inhibition Ratio (%)): 80% |
| CC(C)[Si](C)(C)CCSCCCNC(=O)n1cc(F)c(=O)[nH]c1=O [compound 5, 1-[3-[[2-(Dimethylisopropylsilyl)ethyl]thio]-propylcarbamoyl]-5-fluorouracil] | 19.4 |  | 2250 | inhibition in vivo at 125 mg/kg (B-16 melanoma): 17.6%; inhibition in vivo at 338 mg/kg (colon-38 carcinoma; [2]): 98.4% |
| CC(C)[Si](C)(C)CCCSCCNC(=O)n1cc(F)c(=O)[nH]c1=O [compound 6, 1-[2-[[3-(Dimethylisopropylsilyl)propyl]thio]-ethylcarbamoyl]-5-fluorouracil] |  |  | 1820 | inhibition in vivo at 338 mg/kg (colon-38 carcinoma; [2]): 95.9% |
| C[Si](CCSCCNC(=O)n1cc(F)c(=O)[nH]c1=O)(c1ccccc1)c1ccccc1 [compound 4, 1-[2-[[2-(Diphenylmethylsilyl)ethyl]thio]-ethylcarbamoyl]-5-fluorouracil] |  |  | 1400 | Inhibition Ratio (%) (colon-38 carcinoma; 366 mg/kg/day x 3, oral at 1st): 32.2% |
| CC(C)[Si](C)(C)CCSCCNC(=O)n1cc(F)c(=O)[nH]c1=O [Reference Example 2, 1-[2-[[2-(Dimethylisopropylsilyl)ethyl]thio]-ethylcarbamoyl]-5-fluorouracil] |  |  | 1380 | inhibition in vivo at 300 mg/kg (B-16 melanoma; 300 mg/kg/day x 3, oral at 1st): 79.7%; inhibition in vivo at 289 mg/kg (colon-38 carcinoma; Mus musculus, 672 h, 289 mg/kg/day x 3, oral at 1st, read-out: Inhibition Ratio (%)): 89.8% |
| CC(C)[Si](C)(C)CCSCCN [Example 2, Z-([2-(Isopropyldimethylsilyl)ethyl]thio]ethylamine] | 23.8 | 36.1 | 1620 |  |
| CCCC[Si](C)(C)CCSCCN [Example 3, 2-[[2-(n-Butyldimethylsilyl)ethyl]thio]ethylamine] |  |  | > 1500 |  |
| CCCC[Si](C)(C)CCSCCNC(=O)n1cc(F)c(=O)[nH]c1=O [compound 3, 1-[2-[[2-(Dimethyl-n-butylsilyl)ethyl]thio]-ethylcarbamoyl]-5-fluorouracil] |  |  | 1380 | inhibition in vivo at 300 mg/kg (colon-38 carcinoma; Mus musculus, 672 h, 300 mg/kg/day x 3, oral at 1st, read-out: Inhibition Ratio (%)): 81.2% |
| CCCC[Si](C)(C)CCCSCCCNC(=O)n1cc(F)c(=O)[nH]c1=O [compound 10, 1-{3-{[3-(n-Butyldimethylsilyl)propyl]thio}-propylcarbamoyl}-5-fluorouracil] | 88.5 |  | 1850 | inhibition in vivo at 125 mg/kg (B-16 melanoma): 69.5%; inhibition in vivo at 323 mg/kg (colon-38 carcinoma; [2]): 92.3% |
| C[Si](C)(CCCSCCCN)c1ccccc1 [Example 11, 3[[3-(Dimethylphenylsilyl)propyl]thio]propylamine] | 38.7 | 45.4 | > 1500 |  |
| CC(C)[Si](C)(C)CCCSCCCNC(=O)n1cc(F)c(=O)[nH]c1=O [compound 8, 1-{3-{[3-(Dimethylisopropylsilyl)propyl]thio}-propylcarbamoyl}-5-fluorouracil] | 45.7 |  | 2120 | inhibition in vivo at 125 mg/kg (B-16 melanoma): 32.8%; inhibition in vivo at 350 mg/kg (colon-38 carcinoma; Mus musculus, 672 h, 350 mg/kg/day x 3, oral at 1st, read-out: Inhibition Ratio (%)): 90.3% |
| CC(C)(C)[Si](C)(C)CCCSCCN [Example 7, 2[[3-(t-Butyldimethylsilyl)propyl]thio]ethylamine] | 50 | 32.7 | > 1500 |  |
| CC(C)(C)[Si](C)(C)CCCSCCNC(=O)n1cc(F)c(=O)[nH]c1=O [compound 7, 1-{2-{[3-(Dimethyl-t-butylsilyl]propyl)thio}-ethylcarbamoyl}-5-fluorouracil] | 43.1 |  | 1380 | inhibition in vivo at 311 mg/kg (colon-38 carcinoma; Mus musculus, 672 h, 311 mg/kg/day x 3, oral at 1st, read-out: Inhibition Ratio (%)): 81% |
| CC(C)[Si](C)(C)CCCSCCCN [Example 8, 3-[[3-(Isopropyldimethylsilyl)propyl]thio]propylamine] | 61.1 | 46.3 | > 1500 |  |
| C[Si](CCSCCN)(c1ccccc1)c1ccccc1 [Example 4, 2-[[2-(Methyldiphenylsilyl)ethyl]thio)ethylamine] |  |  | > 1500 |  |
| CC(C)[Si](C)(C)CCSCCCN [Example 5, 3-[[2-(Isopropyldimethylsilyl)ethyl]thio]propylamine] | 21.4 | 50.6 | 750 |  |

Source: patent EP0186452A2, “Organosilicon compounds process for their production and pharmaceutical compositions thereof” (SANWA KAGAKU KENKYUSHO CO., LTD., priority 1984, dated 1986)
